Experimental data reported in patent US12448394B2, “Heterocyclic pyrazole derivatives as type III receptor tyrosine kinase inhibitors” (DEVELOPMENT CENTER FOR BIOTECHNOLOGY, priority 2019, dated 2025).
pIC50: −log10 of the molar value.

Legend:
[1] = biological target: T1, FLT3 kinase (Homo sapiens, UniProt P36888); assay: FLT3 kinase assay (AlphaScreen); type: biochemical; conditions: read-out: Ranking of IC50 values, FLT3
T1 construct: purchased SignalChem
T1 sequence (P36888 27-993): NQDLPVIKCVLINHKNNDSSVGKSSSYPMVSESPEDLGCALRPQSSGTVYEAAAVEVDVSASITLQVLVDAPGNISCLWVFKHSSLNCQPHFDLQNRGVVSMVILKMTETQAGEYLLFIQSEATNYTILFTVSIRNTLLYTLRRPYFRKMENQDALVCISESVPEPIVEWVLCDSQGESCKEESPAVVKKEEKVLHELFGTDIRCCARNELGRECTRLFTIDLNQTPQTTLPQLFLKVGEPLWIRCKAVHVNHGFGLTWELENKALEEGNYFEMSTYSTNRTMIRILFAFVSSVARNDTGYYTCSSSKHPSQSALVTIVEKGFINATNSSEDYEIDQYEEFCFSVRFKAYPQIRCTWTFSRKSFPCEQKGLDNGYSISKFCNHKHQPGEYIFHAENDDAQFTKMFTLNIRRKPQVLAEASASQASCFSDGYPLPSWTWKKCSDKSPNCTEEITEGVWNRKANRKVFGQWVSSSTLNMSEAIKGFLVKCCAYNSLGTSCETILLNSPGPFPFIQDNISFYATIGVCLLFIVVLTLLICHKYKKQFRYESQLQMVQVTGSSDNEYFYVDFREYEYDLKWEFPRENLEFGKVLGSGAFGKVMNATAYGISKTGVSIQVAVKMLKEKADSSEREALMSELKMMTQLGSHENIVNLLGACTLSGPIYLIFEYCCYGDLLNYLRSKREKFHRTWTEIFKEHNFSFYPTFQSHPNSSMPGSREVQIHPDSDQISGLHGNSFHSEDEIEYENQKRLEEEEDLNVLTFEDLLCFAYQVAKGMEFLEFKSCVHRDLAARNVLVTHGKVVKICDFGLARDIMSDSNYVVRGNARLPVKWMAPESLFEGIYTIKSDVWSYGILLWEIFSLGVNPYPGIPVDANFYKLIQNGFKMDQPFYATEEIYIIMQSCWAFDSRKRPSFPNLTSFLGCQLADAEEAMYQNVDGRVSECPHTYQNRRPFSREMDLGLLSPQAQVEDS
Experimental: Inhibition of FLT3 kinase activity by a test compound disclosed herein was estimated by AlphaScreen (PerkinElmer, […]). Standard assay conditions were 1.5 ng of recombinant FLT3 kinase (SignalChem, Richmond, BC, Canada) with 6 ng Biotin-conjugated Poly-(Glu 4: Tyr 1) (Cisbio, Bedford, MA, USA) in the assay buffer (10 μM ATP, 10 mM MOPs, pH7.0, 0.21 mM EDTA, 0.5% glycerol, 1 mg/mL BSA, 0.01% 2-mercaptoethanol, 0.001% Brij35, 10 mM MgCl2) in a final volume of 25 μL. Reactions were incubated at 30° C. for 30 min and stopped by adding 5 μL of 50 mM EDTA. Analysis of resulting product using an AlphaScreen kit and counted with Enspire Alpha (PerkinElmer, Waltham, MA, USA). […] The IC50 values of inhibitors were determined after carrying out assays with each compound at serially diluted concentrations in duplication. The results were analyzed using linear regression software (GraphPad Prism 5; GraphPad Software Inc.)

[2] = tested on: HCC827 NSCLC cell with EGFR exon 19 deletion mutation; assay: HCC827 cell proliferation assay (counter screen); type: cell-based, human; conditions: Homo sapiens, HCC827 cells, 72 hours treatment, CellTiter96, read-out: anti-proliferation activity HCC827 EGFR Exon19 del, IC50 ranking
Experimental: Inhibitions of cell growths by compounds were measured using CellTiter™-96 assay. The cytotoxicities of compounds of the invention were evaluated in cell line panels with different signaling pathway dependencies, including MV4-11 human acute myeloid leukemia cell with FLT3-ITD mutation, Molm-14 human acute myeloid leukemia cell with FLT3-ITD mutation, THP-1 human acute monocytic leukemia cell with NRAS G12D mutation, A375 melanoma cell with BRAF V600E mutation, and HCC827 NSCLC cell with EGFR exon 19 deletion mutation.
HCC827 cells are non-small cell lung carcinoma (NSCLC) cells encoding EGFR exon 19 deletion mutation, which renders the cell growth dependent on EGFR signaling instead of class III RTKs signaling. HCC827 cells (catalog #CRL-2868) were obtained from the ATCC. Briefly, cells were cultured in RPMI1640 medium supplemented with 10% FBS and incubated at 37° C. in 5% CO2 atmosphere. Cells were allowed to expand until reaching saturation, at which point they were sub-cultured or harvested for assay use.
MV4-11, Molm-14, THP-1, A375, and HCC827 cells were seeded into 96-well plates at 6500, 25000, 5000, 2000 and 8000 cells/well, respectively, and incubated at 37° C., 5% CO2 overnight. Then, these seeded cells were treated with increasing concentrations of the test compounds and incubated for another 72 hours. At the end of the incubation, CellTiter96® AQueous One Solution Reagent (Promega, […]) was added and incubated for the additional 2˜4 hours. Cell viability was determined by measuring absorbance at 490 nm using EMax® microplate reader (Molecular Devices, San Jose, CA, USA).

| pIC50 [1] | SMILES | pIC50 [2] |
| --- | --- | --- |
| 8.00 to 9.00 | CN(C)c1ccc(-c2cc3c(s2)Cc2c(-c4ccc5cnn(C)c5c4)n[nH]c2-3)cn1 [Compound 5, N,N-dimethyl-5-(3-(1-methyl-1H-indazol-6-yl)-1,4-dihydrothieno [2′,3′:4,5]cyclopenta[1,2-c]pyrazol-6-yl)pyridin-2-amine] | < 5.00 |
| > 9.00 | c1cc(-c2cc3c(s2)Cc2c(-c4ccc5cn[nH]c5c4)n[nH]c2-3)ccc1CN1CCOCC1 [Compound 6, 4-(4-(3-(1H-indazol-6-yl)-1,4-dihydrothieno[2′,3′:4,5]cyclopenta[1,2-c]pyrazol-6-yl)benzyl)morpholine] | < 5.00 |
| 8.00 to 9.00 | C[C@@H]1CN(Cc2ccc(-c3cc4c(s3)Cc3c(-c5ccc6cn[nH]c6c5)n[nH]c3-4)cc2)C[C@H](C)O1 [Compound 7, (2S,6R)-4-(4-(3-(1H-indazol-6-yl)-1,4-dihydrothieno[2′,3′:4,5]cyclopenta [1,2-c]pyrazol-6-yl)benzyl)-2,6-dimethylmorpholine] | < 5.00 |
| > 9.00 | Cn1ncc2ccc(-c3n[nH]c4c3Cc3sc(-c5ccc(CN6CCOCC6)cc5)cc3-4)cc21 [Compound 8, 4-(4-(3-(1-methyl-1H-indazol-6-yl)-1,4-dihydro-thieno[2′,3′:4,5]cyclopenta [1,2-c]pyrazol-6-yl)benzyl) morpholine] | < 5.00 |
| > 9.00 | C[C@@H]1CN(Cc2ccc(-c3cc4c(s3)Cc3c(-c5ccc6cnn(C)c6c5)n[nH]c3-4)cn2)C[C@H](C)O1 [Compound 9, (2S,6R)-2,6-dimethyl-4-((5-(3-(1-methyl-lH-indazol-6-yl)-1,4-dihydro-thieno[2′,3′:4,5]cyclopenta [1,2-c]pyrazol-6-yl)pyridin-2-yl)methyl) morpholine] | < 5.00 |
| > 9.00 | Cn1ncc2ccc(-c3n[nH]c4c3Cc3sc(-c5ccc(CN6CCOCC6)nc5)cc3-4)cc21 [Compound 10, 4-((5-(3-(1-methyl-1H-indazol-6-yl)-1,4-dihydro-thieno[2′,3′:4,5]cyclopenta [1,2-c]pyrazol-6-yl)pyridin-2-yl)methyl)morpholine] | < 5.00 |
| 8.00 to 9.00 | Cc1ccc(-c2cc3c(s2)Cc2c(-c4ccc5cnn(C)c5c4)n[nH]c2-3)cn1 [Compound 11, 3-(1-methyl-1H-indazol-6-yl)-6-(6-methylpyridin-3-yl)-1,4-dihydrothieno [2′,3′:4,5]cyclopenta[1,2-c] pyrazole] | < 5.00 |
| 8.00 to 9.00 | C[C@@H]1CN(Cc2cccc(-c3cc4c(s3)Cc3c(-c5ccc6cnn(C)c6c5)n[nH]c3-4)c2)C[C@H](C)O1 [Compound 12, (2S,6R)-2,6-dimethyl-4-(3-(3-(1-methyl-1H-indazol-6-yl)-1,4-dihydrothieno [2′,3′:4,5]cyclopenta[1,2-c]pyrazol-6-yl)benzyl) morpholine] | < 5.00 |
| 8.00 to 9.00 | Cn1ncc2ccc(-c3n[nH]c4c3Cc3sc(-c5cccc(CN6CCOCC6)c5)cc3-4)cc21 [Compound 13, 4-(3-(3-(1-methyl-1H-indazol-6-yl)-1,4-dihydro-thieno[2′,3′:4,5]cyclopenta [1,2-c]pyrazol-6-yl)benzyl) morpholine] | < 5.00 |
| 8.00 to 9.00 | CN1CCN(Cc2cccc(-c3cc4c(s3)Cc3c(-c5ccc6cnn(C)c6c5)n[nH]c3-4)c2)CC1 [Compound 14, 3-(1-methyl-1H-indazol-6-yl)-6-(3-((4-methylpiperazin-1-yl)methyl)phenyl)-1,4-dihydrothieno [2′,3′:4,5]cyclopenta[1,2-c] pyrazole] | < 5.00 |
| > 9.00 | CN1CCN(C(=O)c2ccc(-c3cc4c(s3)Cc3c(-c5ccc6cnn(C)c6c5)n[nH]c3-4)cc2)CC1 [Compound 15, (4-(3-(1-methyl-1H-indazol-6-yl)-1,4-dihydrothieno[2′,3′:4,5]cyclopenta[1,2-c]pyrazol-6-yl)phenyl)(4-methyl-piperazin-1-yl)methanone] | < 5.00 |
| > 9.00 | C[C@@H]1CN(Cc2ccc(-c3cc4c(s3)Cc3c(-c5ccc6cn[nH]c6c5)n[nH]c3-4)cn2)C[C@H](C)O1 [Compound 16, (2R,6S)-4-((5-(3-(1H-indazol-6-yl)-1,4-dihydro-thieno[2′,3′:4,5]cyclopenta [1,2-c]pyrazol-6-yl)pyridin-2-yl)methyl)-2,6-dimethylmorpholine] | < 5.00 |
| 8.00 to 9.00 | Cc1cc(-c2cc3c(s2)Cc2c(-c4ccc5cnn(C)c5c4)n[nH]c2-3)ccn1 [Compound 17, 3-(1-methyl-1H-indazol-6-yl)-6-(2-methylpyridin-4-yl)-1,4-dihydrothieno [2′,3′:4,5]cyclopenta[1,2-c] pyrazole] | < 5.00 |
| > 9.00 | c1cc(CN2CCOCC2)ncc1-c1cc2c(s1)Cc1c(-c3ccc4cn[nH]c4c3)n[nH]c1-2 [Compound 18, 4-((5-(3-(1H-indazol-6-yl)-1,4-dihydrothieno[2′,3′:4,5]cyclopenta[1,2-c]pyrazol-6-yl)pyridin-2-yl)methyl) morpholine] | < 5.00 |
| 8.00 to 9.00 | C[C@@H]1CN(C(=O)c2ccc(-c3cc4c(s3)Cc3c(-c5ccc6cnn(C)c6c5)n[nH]c3-4)cc2)C[C@H](C)O1 [Compound 19, ((2S,6R)-2,6-dimethyl-morpholino)(4-(3-(1-methyl-1H-indazol-6-yl)-1,4-dihydrothieno[2′,3′:4,5]cyclopenta[1,2-c]pyrazol-6-yl)phenyl)methanone] | < 5.00 |
| 8.00 to 9.00 | CC(c1ccc(-c2cc3c(s2)Cc2c(-c4ccc5cnn(C)c5c4)n[nH]c2-3)cc1)N1CCOCC1 (stereo not shown) [Compound 20, 4-(1-(4-(3-(1-methyl-1H-indazol-6-yl)-1,4-dihydro-thieno[2′,3′:4,5]cyclopenta [1,2-c]pyrazol-6-yl)phenyl)ethyl)morpholine] | < 5.00 |
| > 9.00 | Cn1ncc2ccc(-c3n[nH]c4c3Cc3sc(-c5ccc(C(=O)N6CCOCC6)cc5)cc3-4)cc21 [Compound 21, (4-(3-(1-methyl-1H-indazol-6-yl)-1,4-dihydro-thieno[2′,3′:4,5]cyclopenta [1,2-c]pyrazol-6-yl)phenyl) (morpholino)methanone] | < 5.00 |
| > 9.00 | Cn1ncc2ccc(-c3n[nH]c4c3Cc3sc(-c5ccc(CCN6CCOCC6)cc5)cc3-4)cc21 [Compound 22, 4-(4-(3-(1-methyl-1H-indazol-6-yl)-1,4-dihydro-thieno[2′,3′:4,5]cyclopenta [1,2-c]pyrazol-6-yl)phenethyl)morpholine] | < 5.00 |
| > 9.00 | Cn1ncc2ccc(-c3n[nH]c4c3Cc3sc(-c5ccc(CN6CCOCC6)cn5)cc3-4)cc21 [Compound 95, 4-((6-(3-(1-methyl-1H-indazol-6-yl)-1,4-dihydro-thieno[2′,3′:4,5]cyclopenta [1,2-c]pyrazol-6-yl)pyridin-3-yl)methyl) morpholine] | – |
